Results published in patent US20260364080A1, “PYRAZOLO-PYRIMIDINONE COMPOUNDS FOR USE IN METHODS OF INHIBITING WEE1 A KINASE” (Acrivon Therapeutics, Inc., priority 2023, published 2026).
Where two headings read alike, the source gives them in different places.

What was measured:
[1] = target: T1, Wee1A kinase (CDK1 Tyr15 phosphorylation in ACHN renal cell carcinoma cells) (Homo sapiens, UniProt P30291); test: High-content imaging of pCdk1 Y15, Wee1A kinase target engagement in ACHN cells; format: cell-based
T1 construct: pCDK1 Tyr15 immunofluorescence read-out
In short: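 ACHN cells exposed to compound for 4 h over 7–5,000 nM or 0.3–200 nM, then fixed and immunostained for pCDK1 Y15 with DAPI nuclear counterstain. The percentage of pCdk1 Y15 nucleus-positive cells relative to DMSO control was imaged per well; EC50 from dose-response curves.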

[2] = target: T2, Myt1 kinase (recombinant PMYT-1) (Homo sapiens, UniProt Q99640); test: Myt1 kinase binding assay (LanthaScreen Eu Kinase Binding Assay)
T2 construct: full length PMYT-1 was expressed by baculovirus in insect cells; purchased Invitrogen A30984; host or cells: insect cells (baculovirus)
T2 sequence (Q99640 1-499): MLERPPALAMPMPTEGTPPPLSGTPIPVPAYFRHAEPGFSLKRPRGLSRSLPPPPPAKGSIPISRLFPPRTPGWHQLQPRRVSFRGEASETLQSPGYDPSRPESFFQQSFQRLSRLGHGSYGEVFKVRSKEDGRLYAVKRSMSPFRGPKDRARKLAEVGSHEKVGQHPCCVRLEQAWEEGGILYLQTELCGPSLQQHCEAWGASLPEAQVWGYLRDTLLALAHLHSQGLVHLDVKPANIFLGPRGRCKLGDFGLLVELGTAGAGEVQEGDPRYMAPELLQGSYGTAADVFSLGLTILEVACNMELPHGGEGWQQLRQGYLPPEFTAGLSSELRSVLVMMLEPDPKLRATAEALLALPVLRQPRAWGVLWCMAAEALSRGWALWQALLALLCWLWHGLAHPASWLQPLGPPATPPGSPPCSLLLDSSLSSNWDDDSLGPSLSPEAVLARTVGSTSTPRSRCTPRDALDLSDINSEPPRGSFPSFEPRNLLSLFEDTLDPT
In short: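 The binding affinity of compounds for Myt1 kinase was measured with a LanthaScreen Europium (Eu) Kinase Binding Assay, a time-resolved FRET format in which test compounds compete against a labeled kinase tracer, and the results were expressed as IC50 values describing compound binding to Myt1.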

[3] = target: T3, recombinant human Wee1A kinase (Homo sapiens, UniProt P30291); test: Wee1A kinase binding assay (LanthaScreen Eu time-resolved FRET)
T3 construct: full length Wee1 kinase was expressed by baculovirus in insect cells; purchased Invitrogen PV3817; host or cells: insect cells (baculovirus)
In short: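 Full-length, baculovirus-expressed GST-tagged Wee1A (5 nM) was mixed with 2 nM Eu-anti-GST antibody, 30 nM kinase tracer 178 and compound (1% DMSO). Buffer was 50 mM HEPES pH 7.5, 10 mM MgCl2, 1 mM EGTA, 0.01% Brij-35, incubated 60 min at room temperature. TR-FRET 665/615 nm emission ratios from duplicates were curve-fitted.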

[4] = 4 h treatment, nuclear positivity for pCdk1 Y15 vs DMSO control, read-out: CDK1 Tyr15 Phosphorylation EC50
[5] = 3 nM tracer 178, 2.5 nM PMYT-1, 1 nM Eu-labeled antibody, read-out: Myt1 kinase Binding IC50
[6] = 30 nM tracer 178, 5 nM Wee1A kinase, 2 nM Eu-labeled antibody, 60 minutes at room temperature, read-out: Wee1A kinase Binding IC50
[7] = read-out: CDK1 Tyr15 Phosphorylation EC50, 4 h treatment, nuclear positivity for pCdk1 Y15 vs DMSO control
[8] = Myt1 kinase Binding IC50, 3 nM tracer 178, 2.5 nM PMYT-1, 1 nM Eu-labeled antibody

T3 sequence (P30291 whole entry): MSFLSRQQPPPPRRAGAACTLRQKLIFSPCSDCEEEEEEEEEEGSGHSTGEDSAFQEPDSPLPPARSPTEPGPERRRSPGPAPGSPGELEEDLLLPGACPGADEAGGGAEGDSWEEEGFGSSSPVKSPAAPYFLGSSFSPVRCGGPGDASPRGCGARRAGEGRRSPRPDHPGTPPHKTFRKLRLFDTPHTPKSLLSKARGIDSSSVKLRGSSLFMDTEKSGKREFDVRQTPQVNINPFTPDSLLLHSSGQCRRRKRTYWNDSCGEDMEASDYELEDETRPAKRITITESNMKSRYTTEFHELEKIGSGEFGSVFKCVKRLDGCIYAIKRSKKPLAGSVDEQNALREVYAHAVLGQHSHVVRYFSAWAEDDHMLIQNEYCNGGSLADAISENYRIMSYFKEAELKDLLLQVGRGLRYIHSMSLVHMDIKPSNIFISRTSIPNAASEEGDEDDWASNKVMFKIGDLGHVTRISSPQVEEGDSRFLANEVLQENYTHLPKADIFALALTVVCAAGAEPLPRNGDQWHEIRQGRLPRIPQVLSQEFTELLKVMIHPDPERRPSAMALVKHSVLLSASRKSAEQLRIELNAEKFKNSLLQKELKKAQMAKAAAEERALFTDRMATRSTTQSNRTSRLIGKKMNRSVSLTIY
T1 sequence (P30291 whole entry): as above

SMILES	EC50 [1, 4] [µM]	IC50 [2, 5] [µM]	IC50 [3, 6] [µM]	EC50 [1, 7] [µM]	IC50 [2, 8] [µM]	IC50 [3] [µM]
C=CCn1c(=O)c2cnc(Nc3ccc4[nH]nc(C)c4c3)nc2n1-c1cccc(OC2CCNCC2)n1 [Compound 345, 2-allyl-6-((3-methyl-1H-indazol-5-yl)amino)-1-(6-(piperidin-4-yloxy)pyridin-2-yl)-1,2-dihydro-3H-pyrazolo[3,4-d]pyrimidin-3-one]	0.5 to 1	0.02 to 0.1	< 0.01	–	–	–
C=CCn1c(=O)c2cnc(Nc3ccc(Cl)cc3)nc2n1-c1cccc(N[C@@H]2CCCN(C)C2)n1 [Compound 168, 1-{6-[(R)-1-methyl-3-piperidylamino]-2-pyridyl}-2-allyl-6-(p-chlorophenylamino)-1,2-dihydro-3H-1,2,5,7-tetraazainden-3-one]	> 1	> 0.5	< 0.01	–	–	–
CN1CCC(Oc2cccc(-n3c4nc(Nc5ccc(Cl)cc5)ncc4c(=O)n3C)n2)CC1 [Compound 150, 6-(p-chlorophenylamino)-2-methyl-1-[6-(1-methyl-4-piperidyloxy)-2-pyridyl]-1,2-dihydro-3H-1,2,5,7-tetraazainden-3-one]	0.1 to 0.5	0.02 to 0.1	< 0.01	–	–	–
C=CCn1c(=O)c2cnc(Nc3ccc(Br)cc3)nc2n1-c1cccc(NC2CCNCC2)n1 [Compound 143, 6-[(4-bromophenyl)amino]-1-{6-[(piperidin-4-yl)amino]pyridin-2-yl}-2-(prop-2-en-1-yl)-1H,2H,3H-pyrazolo[3,4-d]pyrimidin-3-one]	0.5 to 1	0.02 to 0.1	< 0.01	–	–	–
C=CCn1c(=O)c2cnc(Nc3cnn(CC(C)C)c3)nc2n1-c1cccc(N(C)C2CCNCC2)n1 [Compound 170, 1-{6-[methyl(piperidin-4-yl)amino]pyridin-2-yl}-6-{[1-(2-methylpropyl)-1H-pyrazol-4-yl]amino}-2-(prop-2-en-1-yl)-1H,2H,3H-pyrazolo[3,4-d]pyrimidin-3-one]	–	–	–	> 1	> 0.5	< 0.01
C=CCn1c(=O)c2cnc(Nc3cnn(C(C)C)c3)nc2n1-c1cccc(N(C)C2CCN(C)CC2)n1 [Compound 174, 1-{6-[methyl(1-methylpiperidin-4-yl)amino]pyridin-2-yl}-2-(prop-2-en-1-yl)-6-{[1-(propan-2-yl)-1H-pyrazol-4-yl]amino}-1H,2H,3H-pyrazolo[3,4-d]pyrimidin-3-one]	–	–	–	0.1 to 0.5	> 0.5	< 0.01
C=CCn1c(=O)c2cnc(Nc3ccc4c(cnn4C)c3)nc2n1-c1ccnc(OC2CCNCC2)n1 [Compound 350, 2-allyl-6-((1-methyl-1H-indazol-5-yl)amino)-1-(2-(piperidin-4-yloxy)pyrimidin-4-yl)-1,2-dihydro-3H-pyrazolo[3,4-d]pyrimidin-3-one]	0.1 to 0.5	0.1 to 0.5	< 0.01	–	–	–
CCn1c(=O)c2cnc(Nc3cccc(-c4cncnc4)c3)nc2n1-c1cccc(OC2CCN(C)CC2)n1 [Compound 367, 2-ethyl-1-[6-(1-methyl-4-piperidyloxy)-2-pyridyl]-6-[m-(5-pyrimidinyl)phenylamino]-1,2-dihydro-3H-1,2,5,7-tetraazainden-3-one]	< 0.1	0.1 to 0.5	< 0.01	–	–	–
C=CCn1c(=O)c2cnc(Nc3ccc4ncnn4c3)nc2n1-c1cccc(OC2CCN(C)CC2)n1 [Compound 249, 2-allyl-6-(1,3,3a-triaza-5-indenylamino)-1-[6-(1-methyl-4-piperidyloxy)-2-pyridyl]-1,2-dihydro-3H-1,2,5,7-tetraazainden-3-one]	0.1 to 0.5	0.02 to 0.1	< 0.01	–	–	–
C=CCn1c(=O)c2cnc(Nc3ccc(Cl)cc3)nc2n1-c1cccc(N(CCC)C2CCNCC2)n1 [Compound 147]	–	–	–	> 1	> 0.5	< 0.01
C=CCn1c(=O)c2cnc(Nc3ccc(OCC(F)(F)F)cc3)nc2n1-c1cccc(NC2CCNCC2)n1 [Compound 130, 2-allyl-1-[6-(4-piperidylamino)-2-pyridyl]-6-[p-(2,2,2-trifluoroethoxy)phenylamino]-1,2-dihydro-3H-1,2,5,7-tetraazainden-3-one]	0.5 to 1	0.02 to 0.1	< 0.01	–	–	–
C=CCn1c(=O)c2cnc(Nc3ccc(Cl)cc3)nc2n1-c1cccc(OC2CCCNC2)n1 (stereo in doubt) [Compound 159, 6-[(4-chlorophenyl)amino]-1-{6-[(3R)-piperidin-3-yloxy]pyridin-2-yl}-2-(prop-2-en-1-yl)-1H,2H,3H-pyrazolo[3,4-d]pyrimidin-3-one]	0.5 to 1	0.02 to 0.1	< 0.01	–	–	–
C=CCn1c(=O)c2cnc(Nc3ccc(Cl)cc3)nc2n1-c1cccc(O[C@H]2CN3CCC2CC3)n1 [Compound 176, 1-{6-[(3R)-1-azabicyclo[2.2.2]octan-3-yloxy]pyridin-2-yl}-6-[(4-chlorophenyl)amino]-2-(prop-2-en-1-yl)-1H,2H,3H-pyrazolo[3,4-d]pyrimidin-3-one]	–	–	–	> 1	> 0.5	< 0.01
C=CCn1c(=O)c2cnc(Nc3ccc(Cl)cc3)nc2n1-c1cccc(NC2CCNCC2)n1 [Compound 124, 2-allyl-6-((4-chlorophenyl)amino)-1-(6-(piperidin-4-ylamino)pyridin-2-yl)-1,2-dihydro-3H-pyrazolo[3,4-d]pyrimidin-3-one]	0.5 to 1	0.02 to 0.1	< 0.01	–	–	–
C=CCn1c(=O)c2cnc(Nc3ccc4c(cnn4CC(C)C)c3)nc2n1-c1cccc(OC2CCNCC2)n1 [Compound 356, 2-allyl-6-((1-isobutyl-1H-indazol-5-yl)amino)-1-(6-(piperidin-4-yloxy)pyridin-2-yl)-1,2-dihydro-3H-pyrazolo[3,4-d]pyrimidin-3-one]	< 0.1	< 0.02	< 0.01	–	–	–
CCn1c(=O)c2cnc(Nc3ccc(-c4cnn(C)c4)cc3)nc2n1-c1cccc(OC2CCNCC2)n1 [Compound 271, 2-ethyl-6-[p-(1-methyl-4-pyrazolyl)phenylamino]-1-[6-(4-piperidyloxy)-2-pyridyl]-1,2-dihydro-3H-1,2,5,7-tetraazainden-3-one]	0.1 to 0.5	< 0.02	< 0.01	–	–	–
CCCn1c(=O)c2cnc(Nc3ccc4c(cnn4C)c3)nc2n1-c1cccc(OC2CCN(C)CC2)n1 [Compound 111, 6-[(1-methyl-1H-indazol-5-yl)amino]-1-{6-[(1-methylpiperidin-4-yl)oxy]pyridin-2-yl}-2-propyl-1H,2H,3H-pyrazolo[3,4-d]pyrimidin-3-one]	< 0.1	0.02 to 0.1	< 0.01	–	–	–
CCn1c(=O)c2cnc(Nc3ccc(-c4ccccc4)cc3)nc2n1-c1cccc(OC2CCN(C)CC2)n1 [Compound 284, 6-(4-biphenylylamino)-2-ethyl-1-[6-(1-methyl-4-piperidyloxy)-2-pyridyl]-1,2-dihydro-3H-1,2,5,7-tetraazainden-3-one]	0.1 to 0.5	< 0.02	< 0.01	–	–	–
C=CCn1c(=O)c2cnc(Nc3ccc(Cl)cc3)nc2n1-c1cccc(N(CCC)C2CCN(C)CC2)n1 [Compound 149, 6-[(4-chlorophenyl)amino]-1-{6-[(1-methylpiperidin-4-yl)(propyl)amino]pyridin-2-yl}-2-(prop-2-en-1-yl)-1H,2H,3H-pyrazolo[3,4-d]pyrimidin-3-one]	–	–	–	0.5 to 1	> 0.5	< 0.01
C=CCn1c(=O)c2cnc(Nc3ccc4c(cnn4C)c3)nc2n1-c1cccc(O[C@H]2CCN[C@H](C)C2)n1 (stereo in doubt) [Compound 379, 2-allyl-6-((1-methyl-1H-indazol-5-yl)amino)-1-(6-(((2R,4S)-2-methylpiperidin-4-yl)oxy)pyridin-2-yl)-1,2-dihydro-3H-pyrazolo[3,4-d]pyrimidin-3-one]	0.1 to 0.5	0.1 to 0.5	< 0.01	–	–	–
